Data from patent US5622965A, “4-hydroxy-3-nitro-1,2-dihydroquinolin-2-ones and the use thereof as excitatory amino acid and glycine receptor antagonists” (priority 1993, dated 1997).
Like-named read-outs stand apart in the source and are kept apart here.

Columns and labels:
[1] = biological target: glycine/NMDA receptor; assay: 1 μM glycine-stimulated [3H]-MK801 binding assay (glycine/NMDA receptor); set-up: species or system rat; conditions: for Ki: glycine/NMDA receptor binding; for potency relative to 5,7-dichlorokynurenic acid (DCK): % of DCK
Procedure: This assay takes advantage of the fact that the binding of [^3 H]-MK801 to the PCP receptor inside the pore of the NMDA channel is dependent on the presence of both glutamate and glycine. In the absence of glycine but in the presence of glutamate, [^3 H]-MK801 cannot bind effectively to the PCP receptor, because the NMDA channel remains closed and access of [^3 H]-MK801 to the PCP receptor inside the closed channel pore is severely restricted.
The assay is conducted using rat brain membrane homogenates which are enriched in NMDA receptors. The membranes are prepared as follows. Frozen rat brains obtained from Pel-Freez, Rogers, Arkansas) are homogenized in 15 volumes (w/v) of ice cold 0.32M sucrose. The homogenate is spun at 1,000×g for ten minutes. The supernatant is collected and spun for 20 minutes at 44,000×g. The pellet is suspended in 15 volumes of water (relative to original brain weight). The homogenate is again spun at 44,000×g for twenty minutes. The pellet is resuspended in 5 volumes of water and the suspension is freeze-thawed 2 times. After the final thaw cycle, the suspension is brought to 15 volumes with water and spun at 44,000×g for twenty minutes. The pellet is resuspended in 5 volumes of ice-cold 10 mM HEPES, and is titrated to pH 7.4 with KOH containing 0.04% Triton X-100. Membranes are incubated with the Triton/HEPES buffer at 37° C. for 15 minutes. The volume is then brought to 15 with ice-cold 10 mM HEPES, pH 7.4, and spun/washed three times with spins of 44,000×g between washes. The final pellet is suspended in three volumes of 50 mM HEPES, pH 7.4 and the protein concentration is determined with a standard dye-binding protein assay (Bio-Rad, Richmond, Calif.). The suspension is stored at-80° C. until used. Only HPLC grade water is used for all buffers and suspensions/washings. The extensive washings are necessary to remove as much endogenous glycine from the membrane preparation as possible.
Nonspecific binding is defined as the […] presence of PCP (final concentration: 100 μM). To determine the effect of 1 μM glycine on the binding of [3H]-MK801, bound radioactivity in the presence of 10 μM glutamate alone (final concentration) is subtracted from the bound radioactivity in the presence of both 10 μM glummate and 1 μM glycine (final concentration). A 500 nM concentration (final) of 5,7-dichlorokynurenic (DCK) acid is added to all assay tubes. This concentration of the glycine antagonist DCK "buffers" most of the residual endogenous glycine that is not removed by the extensive washing steps that are carried out during the membrane preparation procedure.
The assays are incubated for 120 minutes at room temperature after which time the membrane-bound radioactivity is isolated from the free radioactivity by vacuum filtration through Whatman glass fiber filters that had been pretreated with 0.3% polyethyleneimine. Filtration is accomplished using a Brandel 48 well cell harvester. Filtered membranes are washed three times with 3 ml each of ice cold buffer. Filters are transferred to scintillation vials and 5 ml of scintillation cocktail is added. The vials are shaken overnight and the radioactivity is counted by liquid scintillation spectroscopy. The assays are done in triplicate and all experiments are conducted at least three times.

[2] = cited from earlier work
[3] = test system: glycine binding site of the NMDA receptor; conditions: cited from earlier work
[4] = test system: neurons; conditions: in words; cited from earlier work
[5] = in words; cited from earlier work
[6] = test system: glycine receptor; assay: binding to the glycine receptor (general statement); conditions: in words
[7] = biological target: PCP receptor; conditions: cited from earlier work
[8] = test system: rodents; conditions: in words; cited from earlier work
[9] = test system: pigeons; conditions: in words; cited from earlier work

Compound: 5,6-dichloro-3-nitro-4-hydroxy-1,2-dihydroquinolin-2-one [Compound 16f]
- Ki [1]: 0.8 µM

Compound: O=c1[nH]c2cc(Cl)cc(Cl)c2[nH]c1=O [5,7-dichloro-QX]
- potency relative to 5,7-dichlorokynurenic acid (DCK) [1]: 20%

Compound: O=C(O)c1cc(O)c2c(Cl)cc(Cl)cc2n1 [5,7-dichlorokynurenic acid]
- blood/brain barrier penetration ([2]; in vivo): cannot penetrate the blood/brain barrier
- affinity for the glycine binding site ([3]; in words): relatively high receptor binding affinity

Compound: O=C(O)c1cc(O)c2ccc(Cl)cc2n1 [7-Cl-kynurenic acid]
- blood/brain barrier penetration ([2]; in words): cannot penetrate the blood/brain barrier
- affinity for the glycine binding site ([3]; in words): relatively high receptor binding affinity

Compound: O=C(O)[C@@H]1C[C@H](CP(=O)(O)O)CCN1 [CGS 19755]
- neuroprotective efficacy [4]: neuroprotective efficacy
- PCP-like behavioral side effects [5]: adverse PCP-like behavioral side effects

Compound: O=c1[nH]c2ccccc2c(O)c1[N+](=O)[O-] [Compound 16a, 3-Nitro-4-hydroxy-1,2-dihydroquinolin-2-one]
- potency relative to 5,7-dichlorokynurenic acid (DCK) [1]: 1.4%
- Ki [1]: 18 µM
- binding to the glycine receptor [6]: high binding
- selectivity for the glycine receptor [6]: highly selective

Compound: O=c1[nH]c2ccc([N+](=O)[O-])cc2c(O)c1[N+](=O)[O-] [Compound 16b, 3,6-Dinitro-4-hydroxy-1,2-dihydroquinolin-2-one]
- activity relative to 16a ([1]; in words): about as active as 16a

Compound: O=c1[nH]c2cc(Cl)cc(Cl)c2c(O)c1[N+](=O)[O-] [Compound 16c, 5,7-dichloro-3-nitro-4-hydroxy-1,2-dihydroquinolin-2-one]
- potency relative to 5,7-dichlorokynurenic acid (DCK) [1]: 19%
- Ki [1]: 1.4 µM

Compound: NC1CCN(O)C1=O (stereo not drawn) [HA-966]
- blood/brain barrier penetration ([2]; in words): sufficiently penetrates the blood/brain barrier
- affinity for the glycine binding site ([3]; in words): micromolar affinity
- mode of action at the glycine binding site ([3]; in words): partial agonist

Compound: O=C(O)C1CC2CC(CP(=O)(O)O)CCC2CN1 (stereo not drawn) [LY274614]
- neuroprotective efficacy [4]: neuroprotective efficacy

Compound: C[C@]12N[C@H](Cc3ccccc31)c1ccccc12 [MK-801]
- neuroprotective efficacy [4]: neuroprotective efficacy both in vitro and in vivo
- PCP-like behavioral side effects [5]: adverse PCP-like behavioral side effects
- Kd [7]: ~0.003 µM

Compound: c1ccc(C2(N3CCCCC3)CCCCC2)cc1 [PCP, phencyclidine]
- neuroprotective efficacy [4]: neuroprotective efficacy both in vitro and in vivo
- PCP-like behavioral effects in rodents / animal models [8]: behavioral excitation (hyperlocomotion)
- PCP-like behavioral effect in pigeons [9]: characteristic katalepsy

Compound: COc1ccc2c(c1)[C@]13CCCC[C@@H]1[C@H](C2)N(C)CC3 [dextromethorphan]
- neuroprotective efficacy [4]: neuroprotective efficacy both in vitro and in vivo

Compound: NCC(=O)O [glycine]
- Kd ([3]; used in Cheng and Prusoff equation, read-out: known affinity of glycine for the glycine binding site): 0.1 µM

Compound: O=C(O)c1cc2ccccc2[nH]1 [indole-2-carboxylic acid]
- blood/brain barrier penetration ([2]; in words): cannot penetrate the blood/brain barrier
- affinity for the glycine binding site ([3]; in words): relatively high receptor binding affinity

Compound: CNC1(c2ccccc2Cl)CCCCC1=O (stereo not drawn) [ketamine]
- neuroprotective efficacy [4]: neuroprotective efficacy both in vitro and in vivo
